Calls of active or inactive are those of the source.
Columns and labels:
[1] = target: T1, Tyrosine-protein phosphatase non-receptor type 7 (Homo sapiens, UniProt P35236); format: functional
T1 sequence (P35236 whole entry): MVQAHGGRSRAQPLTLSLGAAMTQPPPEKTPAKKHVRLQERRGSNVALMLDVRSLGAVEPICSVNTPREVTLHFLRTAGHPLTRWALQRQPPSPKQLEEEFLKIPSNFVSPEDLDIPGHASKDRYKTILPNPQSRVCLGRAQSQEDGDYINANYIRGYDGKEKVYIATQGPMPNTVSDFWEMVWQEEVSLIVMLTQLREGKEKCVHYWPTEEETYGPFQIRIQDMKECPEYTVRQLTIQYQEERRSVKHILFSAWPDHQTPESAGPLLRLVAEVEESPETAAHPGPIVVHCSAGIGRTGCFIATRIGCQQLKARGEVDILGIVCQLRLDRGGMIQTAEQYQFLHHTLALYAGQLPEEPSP

[2] = target: Glyceraldehyde-3-phosphate dehydrogenase (Homo sapiens, UniProt P04406)
[3] = target: T2, Dual specificity protein phosphatase 6 (Rattus norvegicus, UniProt Q64346)
T2 sequence (Q64346 whole entry): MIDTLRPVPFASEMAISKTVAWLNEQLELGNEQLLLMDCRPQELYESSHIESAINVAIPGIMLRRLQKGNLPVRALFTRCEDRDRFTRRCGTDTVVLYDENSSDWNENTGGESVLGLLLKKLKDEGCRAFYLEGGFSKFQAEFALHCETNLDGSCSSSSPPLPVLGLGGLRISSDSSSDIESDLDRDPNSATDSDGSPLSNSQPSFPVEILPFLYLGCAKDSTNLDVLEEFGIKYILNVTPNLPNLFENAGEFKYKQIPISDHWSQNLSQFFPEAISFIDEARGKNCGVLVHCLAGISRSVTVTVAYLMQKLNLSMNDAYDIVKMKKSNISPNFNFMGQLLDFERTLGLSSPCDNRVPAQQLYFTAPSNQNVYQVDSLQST

[4] = target: Heat shock 70 kDa protein 1A (Homo sapiens, UniProt P0DMV8); assay: Hsp70 inhibitors, SAR follow-up, biochemical, fluorescence polarization (AID 1072)
[5] = target: T2, Dual specificity protein phosphatase 6; format: functional
[6] = target: Heat shock cognate 71 kDa protein (Homo sapiens, UniProt P11142); assay: In Vitro Hsc70 Dose Response Fluorescence Polarization Assay. [Related pubchem assays: 1072 ]
cells [7] = assay: cells
[8] = inhibitors of intracellular T. cruzi replication, confirmation, NIH3T3 host cells, beta-gal luminescence (AID 2044); format: functional, cell-based;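 note: intracellular parasites grown in NIH/3T3 mouse fibroblasts as host cells; luminescent beta-galactosidase reporter signal from transgenic T. cruzi replicating inside host cells; inhibitors lower the luminescence signal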
[9] = cytotoxicity toward NIH3T3 fibroblasts, dose response, counter-screen, cell-based, ATP luminescence, mouse fibroblasts (AID 2010); format: functional;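 note: cells exposed to compound for about 90 hours before reading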
[10] = target: T3, Neuropeptide Y receptor type 2 (Homo sapiens, UniProt P49146); format: functional, cell-based;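 note: HEK293 cells expressing the receptor and a CNG channel; stimulus was NPY near EC95 followed by isoproterenol to raise cAMP; antagonist potency measured as restoring cAMP signal that NPY suppresses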
T3 sequence (P49146 whole entry): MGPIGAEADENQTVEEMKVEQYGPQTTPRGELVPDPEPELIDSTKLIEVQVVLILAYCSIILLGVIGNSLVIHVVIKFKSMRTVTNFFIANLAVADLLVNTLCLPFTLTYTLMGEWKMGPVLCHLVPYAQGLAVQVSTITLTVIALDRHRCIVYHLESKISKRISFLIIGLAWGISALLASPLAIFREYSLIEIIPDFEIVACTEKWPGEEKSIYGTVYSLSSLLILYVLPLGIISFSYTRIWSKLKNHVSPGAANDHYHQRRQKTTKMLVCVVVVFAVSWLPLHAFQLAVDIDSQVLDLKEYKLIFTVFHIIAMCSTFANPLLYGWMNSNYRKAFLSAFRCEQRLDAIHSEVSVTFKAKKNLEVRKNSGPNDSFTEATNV

[11] = target: T4, Neuropeptide Y receptor type 1 (Homo sapiens, UniProt P25929); format: functional;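 note: HEK293 cells with a CNG channel challenged with NPY then isoproterenol; potency as antagonist that reverses NPY suppression of cAMP signal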
T4 sequence (P25929 whole entry): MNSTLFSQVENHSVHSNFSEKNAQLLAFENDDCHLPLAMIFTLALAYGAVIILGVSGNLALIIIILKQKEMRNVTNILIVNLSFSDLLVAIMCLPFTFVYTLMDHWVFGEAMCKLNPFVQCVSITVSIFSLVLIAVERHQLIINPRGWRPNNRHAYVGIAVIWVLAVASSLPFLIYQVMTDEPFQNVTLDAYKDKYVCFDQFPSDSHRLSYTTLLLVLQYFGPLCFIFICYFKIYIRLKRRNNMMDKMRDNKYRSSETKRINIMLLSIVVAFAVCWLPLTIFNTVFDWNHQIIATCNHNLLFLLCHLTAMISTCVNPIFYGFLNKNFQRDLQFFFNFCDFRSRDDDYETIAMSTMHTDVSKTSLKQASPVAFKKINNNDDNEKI

cells [12] = assay: cells; remark: listed apart in the source
Paired box protein Pax-8 = Paired box protein Pax-8 (Homo sapiens, UniProt Q06710); assay: inhibitors of PAX8-driven TPO luciferase reporter, dose response, RMG-I cells, cherry-pick (AID 687027); format: functional, cell-based;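 note: luciferase reporter driven by Pax8 target thyroperoxidase promoter measured by SteadyGlo luminescence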
[13] = HepG2 cell cytotoxicity, dose response, cytotoxicity control, plate reader, cherry-pick, antagonist series (AID 743416); format: functional, cell-based
[14] = Shn3 3'UTR reporter inhibitors, dose response, cell-based, Clone20 osteoblasts, firefly luciferase, cherry-picked (AID 624132); format: functional;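 note: firefly luciferase luminescence from reporter carrying the Shn3 3'UTR in osteoblasts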
[15] = reduction of Shn3 3'UTR firefly luciferase signal, dose response, Schnurri-3 inhibitor project, cell-based, Clone20 osteoblasts, cherry-pick, set 2 (AID 720490); format: functional;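 note: actives lower the luminescence signal as inhibitors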
[16] = LGR2 antagonists, dose response, cell-based, HEK293, CRE-luciferase reporter, cherry pick, set 2 (AID 743343); format: functional;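 note: transfected cells were stimulated with diluted bursicon conditioned medium after compound addition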
[17] = target: T5, Heat shock factor protein 1 (Mus musculus, UniProt P38532); assay: inhibition of MG132-induced HSE-luciferase signal, confirmation, cell-based, NIH3T3, luminescence, dose retest (AID 2382); format: functional;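 note: NIH3T3 fibroblasts with HSF1-driven luciferase reporter stressed by proteasome inhibitor MG132; luminescence from HSF1-driven luciferase expression after 8 hours of MG132 stress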
T5 sequence (P38532 whole entry): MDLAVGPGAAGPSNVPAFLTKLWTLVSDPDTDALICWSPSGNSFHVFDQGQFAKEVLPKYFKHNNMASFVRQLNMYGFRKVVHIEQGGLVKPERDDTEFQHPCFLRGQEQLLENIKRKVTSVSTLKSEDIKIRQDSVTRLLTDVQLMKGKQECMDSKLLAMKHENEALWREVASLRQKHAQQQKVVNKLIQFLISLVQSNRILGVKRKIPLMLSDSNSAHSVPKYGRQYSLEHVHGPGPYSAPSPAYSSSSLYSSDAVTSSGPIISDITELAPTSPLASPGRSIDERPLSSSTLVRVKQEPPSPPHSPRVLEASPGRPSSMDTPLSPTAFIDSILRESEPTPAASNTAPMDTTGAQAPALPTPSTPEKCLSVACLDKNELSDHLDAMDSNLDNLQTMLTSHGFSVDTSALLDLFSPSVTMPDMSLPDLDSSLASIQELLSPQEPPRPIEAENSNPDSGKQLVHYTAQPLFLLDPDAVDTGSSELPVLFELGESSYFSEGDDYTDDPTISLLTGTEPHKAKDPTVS

[18] = MC4R antagonists, dose response, counter-screen for LGR2 antagonist project, cell-based, plate reader, cherry pick (AID 743444); format: functional;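 note: transfected HEK 293 cells stimulated with alpha-MSH peptide; potency of inhibitors of the alpha-MSH evoked signal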
[19] = A549 cell cytotoxicity, dose response, cytotoxicity control, plate reader, cherry-pick, antagonist series (AID 743412); format: functional, cell-based
[20] = cytotoxicity in HEK-293T cells, dose response, cytotoxicity control for TCR NF-kB inhibitor project, luminescence, T-cell screen hits (AID 489026); format: functional, cell-based;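 note: cells exposed to compound about 14 hours before the viability readout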
[21] = Luminescence-based counterscreen assay for KLF5 inhibitors: dose response cell-based high throughput screening assay to identify cytotoxic compounds using the IEC-6 intestinal epithelial cell line. [Related pubchem assays: 1700 (Primary screen.), 1834 (Confirmation screen.), 1858 (Summary AID.), 1905 (Counterscreen.)]; format: functional
BJ [22] = assay: cytotoxicity toward BJ-TERT fibroblasts, dose response, cell-based, RAS-independent, luminescence (AID 1933); format: functional; details: Homo sapiens
BJ [23] = assay: cells; format: functional, cell-based; details: Homo sapiens
[24] = growth suppression of PTEN-null colon cells, dose response, cell-based, HCT116 PTEN knockout (AID 1047); format: functional;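 note: HCT116 colon tumor cells with PTEN knocked out; cells exposed to compound for 60 hours before readout; potency for loss of cell viability measured by luminescence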
BJ [25] = assay: cytotoxicity toward Ras-transformed BJeLR fibroblasts, dose response, cell-based, alamar blue fluorescence, cherrypicked samples (AID 2631); format: functional; details: Homo sapiens;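 note: confirmatory dose-response assay in RAS-dependent BJ fibroblasts engineered with TERT, LT and ST, with cytotoxicity read by fluorescence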
BJ [26] = assay: cytotoxicity toward BJ-TERT-LT-ST fibroblasts, dose response, cell-based, RAS-independent, luminescence (AID 1935); format: functional; details: Homo sapiens;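 note: BJ fibroblasts immortalized with TERT plus LT and ST oncogenes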
[27] = growth suppression of beta-catenin-knockout colon cells, dose response, cell-based, HCT116, human colon tumor (AID 1045); format: functional;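 note: HCT116 colon tumor cells with beta catenin knocked out; cells exposed to compound for 60 hours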
[28] = cytotoxicity toward DRD oncogenic fibroblasts, dose response, cell-based, non-viral oncogenic, luminescence (AID 1934); format: functional; details: Homo sapiens
[29] = target: T6, RNA-binding protein pos-1 (Caenorhabditis elegans, UniProt G5EF15); assay: inhibitors of POS-1/mex-3 RNA binding, dose response, biochemical, fluorescence polarization (AID 1964);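 note: purified POS-1 fused to maltose binding protein made in E. coli; potency of compounds blocking POS-1 binding to fluorescent RNA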
T6 sequence (G5EF15 whole entry): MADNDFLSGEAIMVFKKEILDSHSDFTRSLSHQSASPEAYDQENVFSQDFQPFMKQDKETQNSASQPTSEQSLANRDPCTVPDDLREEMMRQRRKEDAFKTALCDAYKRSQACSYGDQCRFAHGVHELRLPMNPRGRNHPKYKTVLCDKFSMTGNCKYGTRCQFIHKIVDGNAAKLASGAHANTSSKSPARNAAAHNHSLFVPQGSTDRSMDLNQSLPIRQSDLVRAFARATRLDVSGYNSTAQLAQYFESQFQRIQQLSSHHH

[30] = target: Induced myeloid leukemia cell differentiation protein Mcl-1 (Homo sapiens, UniProt Q07820); format: functional
[31] = target: T7, Zinc finger protein mex-5 (Caenorhabditis elegans, UniProt Q9XUB2); assay: MEX-5/TCR-2 RNA interaction inhibitors, dose response, biochemical, C. elegans, fluorescence polarization (AID 1960)
T7 sequence (Q9XUB2 whole entry): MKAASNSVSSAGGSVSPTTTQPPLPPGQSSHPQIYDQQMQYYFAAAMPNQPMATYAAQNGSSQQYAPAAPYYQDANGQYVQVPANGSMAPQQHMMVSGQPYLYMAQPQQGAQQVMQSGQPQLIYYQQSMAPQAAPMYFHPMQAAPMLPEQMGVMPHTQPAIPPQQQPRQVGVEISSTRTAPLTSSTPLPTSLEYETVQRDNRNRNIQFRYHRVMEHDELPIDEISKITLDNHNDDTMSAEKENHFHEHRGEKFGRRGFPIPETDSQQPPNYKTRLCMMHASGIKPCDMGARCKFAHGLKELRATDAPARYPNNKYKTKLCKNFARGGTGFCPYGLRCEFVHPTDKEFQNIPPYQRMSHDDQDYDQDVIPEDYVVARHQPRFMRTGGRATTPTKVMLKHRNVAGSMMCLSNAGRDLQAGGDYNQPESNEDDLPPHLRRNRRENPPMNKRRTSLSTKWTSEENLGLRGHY

Estrogen receptor = target: T8, Estrogen receptor (Homo sapiens, UniProt P03372);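 note: potency for inhibiting coactivator peptide recruitment to the receptor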
T8 sequence (P03372 whole entry): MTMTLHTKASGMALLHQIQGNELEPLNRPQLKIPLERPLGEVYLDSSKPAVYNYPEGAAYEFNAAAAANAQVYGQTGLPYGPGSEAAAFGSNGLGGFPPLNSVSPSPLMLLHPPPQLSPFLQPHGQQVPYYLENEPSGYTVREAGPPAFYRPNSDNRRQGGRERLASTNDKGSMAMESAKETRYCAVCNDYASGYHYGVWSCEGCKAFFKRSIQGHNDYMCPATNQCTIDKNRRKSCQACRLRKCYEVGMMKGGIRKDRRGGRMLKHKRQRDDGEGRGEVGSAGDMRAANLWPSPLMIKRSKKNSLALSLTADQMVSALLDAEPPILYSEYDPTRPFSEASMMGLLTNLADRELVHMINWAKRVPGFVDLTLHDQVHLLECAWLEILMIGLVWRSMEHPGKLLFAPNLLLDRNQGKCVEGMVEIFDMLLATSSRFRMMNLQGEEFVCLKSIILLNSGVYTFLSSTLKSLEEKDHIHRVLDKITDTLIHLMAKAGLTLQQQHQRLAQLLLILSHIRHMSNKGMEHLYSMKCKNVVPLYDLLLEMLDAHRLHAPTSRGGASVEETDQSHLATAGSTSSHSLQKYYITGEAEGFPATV

Estrogen receptor beta = Estrogen receptor beta (Homo sapiens, UniProt Q92731); assay: ERβ–SRC-3 coactivator interaction inhibitors, confirmation, orthogonal assay, biochemical, ELISA, streptavidin-HRP readout (AID 1060)
Estrogen receptor beta, sequence (Q92731 whole entry): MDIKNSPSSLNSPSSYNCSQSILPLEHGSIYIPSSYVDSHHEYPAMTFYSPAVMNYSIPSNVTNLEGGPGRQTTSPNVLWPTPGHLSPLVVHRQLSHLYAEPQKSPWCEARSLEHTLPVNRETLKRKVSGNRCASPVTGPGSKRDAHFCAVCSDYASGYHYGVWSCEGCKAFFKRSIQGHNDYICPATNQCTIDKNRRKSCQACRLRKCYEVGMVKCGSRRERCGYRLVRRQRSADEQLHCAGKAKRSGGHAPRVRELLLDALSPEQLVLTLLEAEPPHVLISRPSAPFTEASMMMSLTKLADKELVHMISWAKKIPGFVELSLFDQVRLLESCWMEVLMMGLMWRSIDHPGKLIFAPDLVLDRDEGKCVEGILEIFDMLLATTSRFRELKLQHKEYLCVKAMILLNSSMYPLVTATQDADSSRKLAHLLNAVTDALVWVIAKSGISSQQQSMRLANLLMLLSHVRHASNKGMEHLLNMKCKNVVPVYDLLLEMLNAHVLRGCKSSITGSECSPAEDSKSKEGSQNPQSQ

Heat shock cognate 71 kDa protein, sequence (P11142 whole entry): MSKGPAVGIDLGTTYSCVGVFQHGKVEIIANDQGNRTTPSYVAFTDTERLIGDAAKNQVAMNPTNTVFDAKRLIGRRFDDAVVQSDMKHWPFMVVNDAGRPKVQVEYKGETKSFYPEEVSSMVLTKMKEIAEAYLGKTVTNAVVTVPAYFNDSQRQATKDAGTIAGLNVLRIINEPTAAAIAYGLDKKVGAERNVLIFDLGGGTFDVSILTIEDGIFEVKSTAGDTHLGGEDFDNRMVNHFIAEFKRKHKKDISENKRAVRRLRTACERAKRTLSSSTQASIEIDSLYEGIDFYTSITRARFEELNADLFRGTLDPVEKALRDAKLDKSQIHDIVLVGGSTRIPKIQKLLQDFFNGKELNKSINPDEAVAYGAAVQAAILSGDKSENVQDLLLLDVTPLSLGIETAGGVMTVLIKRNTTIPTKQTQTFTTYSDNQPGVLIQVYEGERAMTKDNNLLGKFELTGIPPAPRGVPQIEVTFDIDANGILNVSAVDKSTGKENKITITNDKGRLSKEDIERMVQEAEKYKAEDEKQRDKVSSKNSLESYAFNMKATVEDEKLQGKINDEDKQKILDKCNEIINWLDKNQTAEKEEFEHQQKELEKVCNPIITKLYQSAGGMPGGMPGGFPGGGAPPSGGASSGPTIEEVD
Glyceraldehyde-3-phosphate dehydrogenase, sequence (P04406 whole entry): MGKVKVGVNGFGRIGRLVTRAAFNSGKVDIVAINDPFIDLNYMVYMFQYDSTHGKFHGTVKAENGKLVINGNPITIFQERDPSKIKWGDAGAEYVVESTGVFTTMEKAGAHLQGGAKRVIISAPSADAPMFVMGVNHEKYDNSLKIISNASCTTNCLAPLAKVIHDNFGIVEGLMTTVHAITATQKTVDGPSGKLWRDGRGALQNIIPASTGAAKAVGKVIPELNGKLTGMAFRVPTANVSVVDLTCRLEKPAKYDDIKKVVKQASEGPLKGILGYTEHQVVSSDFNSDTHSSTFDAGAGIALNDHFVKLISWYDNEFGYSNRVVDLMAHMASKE
Heat shock 70 kDa protein 1A, sequence (P0DMV8 whole entry): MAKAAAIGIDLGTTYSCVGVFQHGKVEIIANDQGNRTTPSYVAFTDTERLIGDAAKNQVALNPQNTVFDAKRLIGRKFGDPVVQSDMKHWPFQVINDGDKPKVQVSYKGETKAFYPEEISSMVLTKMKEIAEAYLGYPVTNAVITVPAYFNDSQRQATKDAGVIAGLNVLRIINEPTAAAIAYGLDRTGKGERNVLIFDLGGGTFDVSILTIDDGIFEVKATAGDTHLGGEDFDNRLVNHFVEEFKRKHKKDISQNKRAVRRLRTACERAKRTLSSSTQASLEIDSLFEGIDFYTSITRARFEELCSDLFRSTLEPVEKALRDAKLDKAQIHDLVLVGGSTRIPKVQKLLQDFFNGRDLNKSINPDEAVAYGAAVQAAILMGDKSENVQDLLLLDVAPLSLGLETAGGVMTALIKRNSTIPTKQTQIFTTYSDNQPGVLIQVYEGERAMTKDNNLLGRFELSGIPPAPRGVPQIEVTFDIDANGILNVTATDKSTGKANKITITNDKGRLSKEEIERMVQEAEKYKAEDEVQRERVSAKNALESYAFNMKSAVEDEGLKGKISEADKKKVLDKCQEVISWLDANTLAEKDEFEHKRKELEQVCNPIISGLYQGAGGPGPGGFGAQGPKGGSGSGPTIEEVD
Induced myeloid leukemia cell differentiation protein Mcl-1, sequence (Q07820 whole entry): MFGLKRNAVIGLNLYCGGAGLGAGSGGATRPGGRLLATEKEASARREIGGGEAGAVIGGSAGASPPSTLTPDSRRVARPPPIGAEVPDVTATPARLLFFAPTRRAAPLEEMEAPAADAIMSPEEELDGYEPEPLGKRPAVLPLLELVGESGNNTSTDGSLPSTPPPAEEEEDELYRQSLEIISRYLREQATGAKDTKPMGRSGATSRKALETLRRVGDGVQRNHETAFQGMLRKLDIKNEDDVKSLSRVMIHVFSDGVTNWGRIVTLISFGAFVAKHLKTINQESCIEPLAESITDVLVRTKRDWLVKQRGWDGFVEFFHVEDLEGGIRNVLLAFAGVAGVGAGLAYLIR
Paired box protein Pax-8, sequence (Q06710 whole entry): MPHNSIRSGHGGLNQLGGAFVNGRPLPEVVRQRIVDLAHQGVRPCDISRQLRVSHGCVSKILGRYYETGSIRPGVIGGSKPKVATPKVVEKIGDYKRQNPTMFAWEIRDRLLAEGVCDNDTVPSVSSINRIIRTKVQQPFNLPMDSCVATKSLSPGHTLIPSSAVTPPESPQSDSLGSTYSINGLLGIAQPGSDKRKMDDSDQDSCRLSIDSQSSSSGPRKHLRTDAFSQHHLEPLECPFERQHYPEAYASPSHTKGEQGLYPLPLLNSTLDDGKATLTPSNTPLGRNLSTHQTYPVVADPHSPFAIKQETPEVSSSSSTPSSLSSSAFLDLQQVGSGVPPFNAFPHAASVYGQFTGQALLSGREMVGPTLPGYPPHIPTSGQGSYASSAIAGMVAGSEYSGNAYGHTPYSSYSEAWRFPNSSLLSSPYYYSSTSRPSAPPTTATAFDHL

O=C(Oc1ccc2c(c1)C1C=CCC1C(C(=O)O)N2)c1ccc(Cl)cc1Cl (stereo not given)
IC50 [1]: 2.38 µM (active)
IC50 [2]: > 100 µM (not active)
IC50 [3]: 17 µM (active)
IC50 [4]: > 100 µM (not active)
IC50 [5]: 15.6 µM (active)
IC50 [6]: > 100 µM (not active)

CN(C)CCCSc1nc(-c2ccccc2)nc2c1CCC2
EC50 (cells [7]): 0.12 µM (active)
EC50 [8]: < 0.1 µM (active)
EC50 [9]: > 60 µM (not active)
IC50 [10]: 18.2 µM (not active)
IC50 [11]: 7.33 µM (active)

CCN(c1ccccc1)S(=O)(=O)c1ccc(Cl)c(NC(=O)c2ccc(O)nn2)c1
IC50 (cells [12]): 32.8 µM (active)

CC1=C2C(=O)C3C(CC=C4CC(O)CCC43C)C2CCC12OC1CC(C)CNC1C2C (stereo not given)
IC50 (cells [12]): 4.18 µM (active)

CC(C)(C)C(=O)Nc1ccc(NC(=O)c2ccco2)nc1
AC50 (Paired box protein Pax-8): 1.26 µM (active)
AC50 [13]: > 52 µM (inactive)
AC50 [14]: 1.17 µM (active)
AC50 [15]: 2.64 µM (active)
AC50 [16]: 0.243 µM (active)
EC50 [17]: < 0.16 µM (active)
AC50 [18]: 0.245 µM (active)
AC50 [19]: > 52 µM (inactive)
IC50 [20]: > 80 µM (inactive)
IC50 [21]: > 39.8 µM (not active)

O=C(/C=C/c1cccc2ccccc12)c1ccncc1
EC50 (BJ [22]): 10.2 µM (inconclusive)
EC50 (BJ [23]): > 150 µM (inconclusive)
EC50 [24]: 8.54 µM (active)
IC50 [10]: 4.95 µM (active)
EC50 (BJ [25]): > 133 µM (inactive)
EC50 (BJ [26]): > 75 µM (inconclusive)
IC50 [11]: 5.47 µM (active)
EC50 [27]: 5.26 µM (active)
EC50 [28]: 16.5 µM (active)

O=C(O)C1Nc2c(C(=O)N3CCOCC3)cccc2C2C=CCC12 (stereo not given)
EC50 [29]: 45.1 µM (active)
IC50 [30]: 2.78 µM (not active)
IC50 [2]: > 100 µM (not active)
EC50 [31]: 21.3 µM (inconclusive)
IC50 (Estrogen receptor): 15.9 µM (active)
IC50 [4]: > 100 µM (not active)
IC50 (Estrogen receptor beta): 0.0407 µM (not active)
IC50 [6]: > 100 µM (not active)

Reference: ChEMBL document CHEMBL1201862, “PubChem BioAssay data set” (2004)
